Assay results: PubChem BioAssay (NCI)
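Interpolation was linear, between the two tested concentrations surrounding the appropriate level; five concentrations were tested over 48 hours in 96-well plates. The concentration for full growth arrest is given as TGI.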

Columns and labels:
Test in all cases: growth of human tumour cells (NCI), 48 h
HOP-92 NSCLC = tested on: HOP-92 NSCLC
SF-539 CNS = tested on: SF-539 CNS
K-562 leukemia = tested on: K-562 leukemia
SN12C renal = tested on: SN12C renal
OVCAR-5 ovarian = tested on: OVCAR-5 ovarian
MDA-MB-231 breast = tested on: MDA-MB-231 breast
U251 CNS = tested on: U251 CNS
SK-MEL-5 melanoma = tested on: SK-MEL-5 melanoma
EKVX NSCLC = tested on: EKVX NSCLC
LOX IMVI melanoma = tested on: LOX IMVI melanoma
MCF7 breast = tested on: MCF7 breast
SNB-19 CNS = tested on: SNB-19 CNS
OVCAR-3 ovarian = tested on: OVCAR-3 ovarian
MDA-N = tested on: MDA-N
NCI-H460 lung = tested on: NCI-H460 lung
SNB-75 CNS = tested on: SNB-75 CNS
M14 melanoma = tested on: M14 melanoma
MOLT-4 leukemia = tested on: MOLT-4 leukemia
HCC-2998 colon = tested on: HCC-2998 colon
CAKI-1 renal = tested on: CAKI-1 renal
T-47D breast = tested on: T-47D breast
A549 NSCLC = tested on: A549 NSCLC
NCI/ADR-RES ovarian = tested on: NCI/ADR-RES ovarian
UACC-257 melanoma = tested on: UACC-257 melanoma
OVCAR-4 ovarian = tested on: OVCAR-4 ovarian
KM12 colon = tested on: KM12 colon
786-0 renal = tested on: 786-0 renal
COLO 205 colon = tested on: COLO 205 colon
ACHN renal = tested on: ACHN renal
HCT-15 colon = tested on: HCT-15 colon
NCI-H522 lung = tested on: NCI-H522 lung
HOP-62 NSCLC = tested on: HOP-62 NSCLC
MDA-MB-435 = tested on: MDA-MB-435
BT-549 breast = tested on: BT-549 breast
A498 renal = tested on: A498 renal
SW-620 colon = tested on: SW-620 colon
OVCAR-8 ovarian = tested on: OVCAR-8 ovarian
NCI-H226 lung = tested on: NCI-H226 lung
SK-MEL-2 melanoma = tested on: SK-MEL-2 melanoma
UACC-62 melanoma = tested on: UACC-62 melanoma
UO-31 renal = tested on: UO-31 renal
SF-268 CNS = tested on: SF-268 CNS
CCRF-CEM leukemia = tested on: CCRF-CEM leukemia
RPMI-8226 leukemia = tested on: RPMI-8226 leukemia
HCT-116 colon = tested on: HCT-116 colon
NCI-H23 lung = tested on: NCI-H23 lung
PC-3 prostate = tested on: PC-3 prostate
DU-145 prostate = tested on: DU-145 prostate
RXF 393 renal = tested on: RXF 393 renal
HT29 colon = tested on: HT29 colon
SF-295 CNS = tested on: SF-295 CNS
TK-10 renal = tested on: TK-10 renal
HL-60(TB) leukemia = tested on: HL-60(TB) leukemia
SK-OV-3 ovarian = tested on: SK-OV-3 ovarian
HS 578T breast = tested on: HS 578T breast
IGROV1 ovarian = tested on: IGROV1 ovarian
SR leukemia = tested on: SR leukemia
SK-MEL-28 melanoma = tested on: SK-MEL-28 melanoma
MALME-3M melanoma = tested on: MALME-3M melanoma

Structure (SMILES): O=c1[nH]c2ccccc2c(O)c1/C=N/C(=S)NC1CCCCC1
- TGI (HOP-92 NSCLC): > 100 µM
- TGI (SF-539 CNS): > 100 µM
- TGI (K-562 leukemia): > 100 µM
- TGI (SN12C renal): > 100 µM
- TGI (OVCAR-5 ovarian): > 100 µM
- TGI (MDA-MB-231 breast): > 100 µM
- TGI (U251 CNS): > 100 µM
- TGI (SK-MEL-5 melanoma): > 100 µM
- TGI (EKVX NSCLC): > 100 µM
- TGI (LOX IMVI melanoma): > 100 µM
- TGI (MCF7 breast): > 100 µM
- TGI (SNB-19 CNS): > 100 µM
- TGI (OVCAR-3 ovarian): > 100 µM
- TGI (MDA-N): > 100 µM
- TGI (NCI-H460 lung): > 100 µM
- TGI (SNB-75 CNS): > 100 µM
- TGI (M14 melanoma): > 100 µM
- TGI (MOLT-4 leukemia): > 100 µM
- TGI (HCC-2998 colon): > 100 µM
- TGI (CAKI-1 renal): > 100 µM
- TGI (T-47D breast): > 100 µM
- TGI (A549 NSCLC): > 100 µM
- TGI (NCI/ADR-RES ovarian): > 100 µM
- TGI (UACC-257 melanoma): > 100 µM
- TGI (OVCAR-4 ovarian): > 100 µM
- TGI (KM12 colon): > 100 µM
- TGI (786-0 renal): > 100 µM
- TGI (COLO 205 colon): > 100 µM
- TGI (ACHN renal): > 100 µM
- TGI (HCT-15 colon): > 100 µM
- TGI (NCI-H522 lung): > 100 µM
- TGI (HOP-62 NSCLC): > 100 µM
- TGI (MDA-MB-435): > 100 µM
- TGI (BT-549 breast): > 100 µM
- TGI (A498 renal): > 100 µM
- TGI (SW-620 colon): > 100 µM
- TGI (OVCAR-8 ovarian): > 100 µM
- TGI (NCI-H226 lung): > 100 µM
- TGI (SK-MEL-2 melanoma): > 100 µM
- TGI (UACC-62 melanoma): > 100 µM
- TGI (UO-31 renal): > 100 µM
- TGI (SF-268 CNS): > 100 µM
- TGI (CCRF-CEM leukemia): > 100 µM
- TGI (RPMI-8226 leukemia): > 100 µM
- TGI (HCT-116 colon): > 100 µM
- TGI (NCI-H23 lung): > 100 µM
- TGI (PC-3 prostate): > 100 µM
- TGI (DU-145 prostate): > 100 µM
- TGI (RXF 393 renal): > 100 µM
- TGI (HT29 colon): > 100 µM
- TGI (SF-295 CNS): > 100 µM
- TGI (TK-10 renal): > 100 µM
- TGI (HL-60(TB) leukemia): > 100 µM
- TGI (SK-OV-3 ovarian): > 100 µM
- TGI (HS 578T breast): > 100 µM
- TGI (IGROV1 ovarian): > 100 µM

Structure (SMILES): CC(CCc1nc2ccccc2s1)(c1ccc(O)cc1)c1ccc(O)cc1
- TGI (HOP-92 NSCLC): 36.7 µM
- TGI (K-562 leukemia): 47.2 µM
- TGI (SN12C renal): 33.6 µM
- TGI (OVCAR-5 ovarian): 33.1 µM
- TGI (MDA-MB-231 breast): 32 µM
- TGI (U251 CNS): 27.7 µM
- TGI (SK-MEL-5 melanoma): 33.1 µM
- TGI (EKVX NSCLC): 32.3 µM
- TGI (LOX IMVI melanoma): 29.4 µM
- TGI (SNB-19 CNS): 34.8 µM
- TGI (OVCAR-3 ovarian): 31.3 µM
- TGI (MDA-N): 31.1 µM
- TGI (NCI-H460 lung): 30 µM
- TGI (SNB-75 CNS): 34 µM
- TGI (M14 melanoma): 33.4 µM
- TGI (MOLT-4 leukemia): 42.9 µM
- TGI (HCC-2998 colon): 33.8 µM
- TGI (CAKI-1 renal): 45 µM
- TGI (T-47D breast): 95.2 µM
- TGI (A549 NSCLC): 38.2 µM
- TGI (NCI/ADR-RES ovarian): 57.2 µM
- TGI (UACC-257 melanoma): 28.7 µM
- TGI (OVCAR-4 ovarian): 37 µM
- TGI (KM12 colon): 33.8 µM
- TGI (786-0 renal): 30.2 µM
- TGI (ACHN renal): 33.2 µM
- TGI (HCT-15 colon): 35.4 µM
- TGI (NCI-H522 lung): 32 µM
- TGI (HOP-62 NSCLC): 31.5 µM
- TGI (MDA-MB-435): 30.8 µM
- TGI (BT-549 breast): 39.7 µM
- TGI (A498 renal): 36.5 µM
- TGI (SW-620 colon): 43.5 µM
- TGI (OVCAR-8 ovarian): 39.6 µM
- TGI (NCI-H226 lung): 41.1 µM
- TGI (SR leukemia): 53.3 µM
- TGI (SK-MEL-2 melanoma): 31.4 µM
- TGI (UACC-62 melanoma): 29.4 µM
- TGI (UO-31 renal): 31.3 µM
- TGI (SF-268 CNS): 40.5 µM
- TGI (SK-MEL-28 melanoma): 33.7 µM
- TGI (HCT-116 colon): 34 µM
- TGI (NCI-H23 lung): 32 µM
- TGI (MALME-3M melanoma): 31 µM
- TGI (PC-3 prostate): 27.9 µM
- TGI (DU-145 prostate): 31.6 µM
- TGI (RXF 393 renal): 33.2 µM
- TGI (HT29 colon): 38.4 µM
- TGI (SF-295 CNS): 28.9 µM
- TGI (TK-10 renal): 34.1 µM
- TGI (HS 578T breast): 52.9 µM
- TGI (IGROV1 ovarian): 28.3 µM
